Assay results from EP1056700B1, “MEDICINAL USES OF PHENYLALKANOLS AND DERIVATES” (ZingoTX Pty Ltd, priority 1997, dated 1999).
Entries after “also recorded” stand apart in the source; their conditions may differ.

What was measured:
cardiac Purkinje fibres = test: Cardiac electrophysiology on Purkinje fibres; design: species or system dog; details: for effect on rate of depolarization, amplitude of action potential and duration of action potential at 50% and 90% repolarization: up to 10 µM
Experimental: The basic cardiac electrophysiological properties were assessed using cardiac Purkinje fibres obtained from adult mongrel dogs.
Electrophysiology was carried out on dog heart purkinje fibre to test for potential arrhythmia. […] At high concentration (50 µM), however, [8]-gingerol reduced approximate 80% and 50% of action potential duration at 50% and 90% repolarisations respectively. Whereas the analogue reduced 75% and 30% respectively.

right atrium guinea pig = test: Cardiovascular and neuro-effector junction activities: right atrium, guinea pig; details: for right atrium guinea pig: result in words with concentration
Text: (§1) The cardiotonic action of 1-(4-hydroxy-3-methoxyphenyl)dodecan-3-ol [3.93] was confirmed from independent studies, carried out at our request as part of our agreement with Johnson & Johnson Research Ltd (J&J), by Prof. James Angus from the University of Melbourne. […] A tachycardial effect of the substance on guinea pig atria was, however, observed at significant rate, 50-60% of isoprenaline Emax and the response was not α- or β-adrenoceptor mediated. […] Cardiovascular and neuro-effector junction activities of gingerol analogues

left atrium guinea pig = test: Cardiovascular and neuro-effector junction activities: left atrium, guinea pig; details: for left atrium guinea pig: result in words with concentration
Text: as §1

diaphragm rat = test: Cardiovascular and neuro-effector junction activities: diaphragm, rat
Text: as §1

[1] = test system: right atrium-vagus guinea pig; test: Cardiovascular and neuro-effector junction activities: right atrium-vagus, guinea pig; details: result in words with concentration
Text: as §1

vas deferens rat = test: Cardiovascular and neuro-effector junction activities: vas deferens, rat
Text: as §1

5-lipoxygenase = target: T1, 5-lipoxygenase (Rattus norvegicus, UniProt P12527); test: 5-lipoxygenase assay (MDS PANLABS), RBL-1 cells, 5-HETE radioimmunoassay; format: biochemical; details: arachidonic acid as substrate
T1 construct: 5-lipoxygenase activity from rat basophilic leukemia cells (RBL-1); host or cells: RBL-1 (rat basophilic leukemia)
T1 sequence (P12527 whole entry): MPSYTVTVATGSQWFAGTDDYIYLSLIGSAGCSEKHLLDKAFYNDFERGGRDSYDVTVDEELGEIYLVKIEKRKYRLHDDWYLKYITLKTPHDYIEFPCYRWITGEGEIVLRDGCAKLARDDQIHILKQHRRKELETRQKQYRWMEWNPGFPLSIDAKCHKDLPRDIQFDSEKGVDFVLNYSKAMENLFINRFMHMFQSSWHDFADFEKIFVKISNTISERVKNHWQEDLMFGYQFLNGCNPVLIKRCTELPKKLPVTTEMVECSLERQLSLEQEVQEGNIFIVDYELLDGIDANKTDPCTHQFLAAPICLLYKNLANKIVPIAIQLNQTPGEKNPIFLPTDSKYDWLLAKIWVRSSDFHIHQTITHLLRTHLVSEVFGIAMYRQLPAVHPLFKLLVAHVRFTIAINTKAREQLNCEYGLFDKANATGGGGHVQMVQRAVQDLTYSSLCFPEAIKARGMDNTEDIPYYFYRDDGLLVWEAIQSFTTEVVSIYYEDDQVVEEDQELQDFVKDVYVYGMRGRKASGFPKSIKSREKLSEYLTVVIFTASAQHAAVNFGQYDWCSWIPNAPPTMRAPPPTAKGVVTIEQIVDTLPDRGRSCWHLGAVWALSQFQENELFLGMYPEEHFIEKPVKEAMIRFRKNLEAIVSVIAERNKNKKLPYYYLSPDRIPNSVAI
Experimental: 3-hydroxy-1-(4-hydroxy-3-methoxyphenyl)dodecane [3.93] was tested at MDS PANLABS: Pharmacology Services (Taiwan) for 5-lipoxygenase activity from rat basophilic leukemia cells (RBL-1) with arachidonic acid as substrate. The inhibitory activity of the substance was quantitated, using radioimmunoassay, from the formation of 5-HETE. At 10 µM, the substance gave approximate 90% inhibition of 5-lipoxygenase activity.

[2] = test system: rabbit platelet-rich plasma; test: Antiplatelet aggregation screen with arachidonic acid in rabbit platelet-rich plasma; format: cell-based
[3] = Acute toxicity in mice for 3 days; format: in vivo
Text: However, no toxicity was shown towards mice for dose by the oral route. […] Brine shrimp toxicity for gingerols and gingerol analogues tested ranged from low to moderate.

[4] = test system: brine shrimp (Artemia salina Leach); test: Brine shrimp toxicity bioassay; format: in vivo; details: result in words
NK-1 receptor = target: T2, NK-1 receptor (Cavia porcellus, UniProt P30547); test: Neurokinin-1 binding with [^3H]Substance P on guinea pig submaxillary membrane
T2 construct: tested on guinea pig submaxillary membrane; from tissue; host or cells: guinea pig submaxillary membrane
T2 sequence (P30547 whole entry): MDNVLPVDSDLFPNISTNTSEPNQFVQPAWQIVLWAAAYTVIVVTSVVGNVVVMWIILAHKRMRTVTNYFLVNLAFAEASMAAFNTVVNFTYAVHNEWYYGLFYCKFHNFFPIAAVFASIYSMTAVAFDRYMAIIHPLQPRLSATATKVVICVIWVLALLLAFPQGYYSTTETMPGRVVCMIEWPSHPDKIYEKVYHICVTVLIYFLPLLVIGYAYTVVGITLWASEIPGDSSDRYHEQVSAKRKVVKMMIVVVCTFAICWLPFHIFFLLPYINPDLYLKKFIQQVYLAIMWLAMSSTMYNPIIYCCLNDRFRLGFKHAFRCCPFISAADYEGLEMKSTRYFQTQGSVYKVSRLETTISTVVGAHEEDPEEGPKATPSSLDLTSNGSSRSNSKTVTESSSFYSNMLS
Experimental: 3-hydroxy-1-(4-hydroxy-3-methoxyphenyl)dodecane [3.93], was tested on guinea pig submaxillary membrane for neurokinin-1 (NK-1) antagonist activity with tritium labelled [^3H]Substance P and found to have relatively potent inhibition of the binding of Substance P to NK-1 receptor. […] It gave approximately 80% inhibition at 30 µM.

Bleeding time in mice = format: in vivo
[5] = dogs, 0.3 mg / kg, i.v.; cited from earlier work
[6] = result in words with concentration

SMILES: CCCCCCCC(O)CC(=O)c1ccc(O)c(OC)c1 (stereo not drawn) [3-hydroxy-1-(4-hydroxy-3-methoxyphenyl)decan-1-one]
- Action Potential Amplitude (cardiac Purkinje fibres; 5 µM): 125±3 mV
- Action Potential Duration 50% repolarisation (cardiac Purkinje fibres; 5 µM): 176 ± 17 ms
- Action Potential Duration 90% repolarisation (cardiac Purkinje fibres; 5 µM): 270 ± 26 ms
- Maximum rate of depolarisation (cardiac Purkinje fibres; 5 µM): 524±66 V/s
- Action Potential Amplitude (cardiac Purkinje fibres; 10 µM): 127±4 mV
- Action Potential Duration 50% repolarisation (cardiac Purkinje fibres; 10 µM): 157 ± 23 ms
- Action Potential Duration 90% repolarisation (cardiac Purkinje fibres; 10 µM): 257 ± 25 ms
- Maximum rate of depolarisation (cardiac Purkinje fibres; 10 µM): 527±78 V/s
- Action Potential Amplitude (cardiac Purkinje fibres; 20 µM): 123±6 mV
- Action Potential Duration 50% repolarisation (cardiac Purkinje fibres; 20 µM): 124 ± 16 ms
- Action Potential Duration 90% repolarisation (cardiac Purkinje fibres; 20 µM): 245 ± 17 ms
- Maximum rate of depolarisation (cardiac Purkinje fibres; 20 µM): 521±87 V/s
- Action Potential Amplitude (cardiac Purkinje fibres; 30 µM): 115±7 mV
- Action Potential Duration 50% repolarisation (cardiac Purkinje fibres; 30 µM): 94 ± 10 ms
- Action Potential Duration 90% repolarisation (cardiac Purkinje fibres; 30 µM): 212 ± 21 ms
- Maximum rate of depolarisation (cardiac Purkinje fibres; 30 µM): 423±45 V/s
- Action Potential Amplitude (cardiac Purkinje fibres; 40 µM): 117±7 mV
- Action Potential Duration 50% repolarisation (cardiac Purkinje fibres; 40 µM): 81 ± 10 ms
- Action Potential Duration 90% repolarisation (cardiac Purkinje fibres; 40 µM): 201 ± 13 ms
- Maximum rate of depolarisation (cardiac Purkinje fibres; 40 µM): 442±61 V/s
- Action Potential Amplitude (cardiac Purkinje fibres; 50 µM): 110±9 mV
- Action Potential Duration 50% repolarisation (cardiac Purkinje fibres; 50 µM): 55 ± 4 ms
- Action Potential Duration 90% repolarisation (cardiac Purkinje fibres; 50 µM): 188 ± 19 ms
- Maximum rate of depolarisation (cardiac Purkinje fibres; 50 µM): 363±74 V/s
- reduction of action potential duration at 50% repolarisation (cardiac Purkinje fibres; 50 µM): 75%
- reduction of action potential duration at 90% repolarisation (cardiac Purkinje fibres; 50 µM): 30%
- effect on rate of depolarization, amplitude of action potential and duration of action potential at 50% and 90% repolarization (cardiac Purkinje fibres; listed as 3.92): insignificant effect; also recorded: only a small effect
- right atrium guinea pig (right atrium guinea pig): no change basal rate 10^-7 - 10^-5 M
- left atrium guinea pig (left atrium guinea pig): • no inotropi sm
- effect on isoprenaline response, left atrium guinea pig (left atrium guinea pig; up to 30 µM): • no effect on isoprenali ne response (up to 30 µM)
- diaphragm rat ↓ (diaphragm rat; 3x10^-5 M): ↓10% 3x10^-5 M
- diaphragm rat (diaphragm rat; [6]): no effect 10^-5 M
- right atrium-vagus guinea pig [1]: weak? enhanced slowing 10^-7 - 10^-6 M
- block of ATP or α1-receptors in vas deferens (vas deferens rat): Neither blocked
- vas deferens rat (vas deferens rat; [6]): no effect 10^-4 M

SMILES: CCCCCCCCCC(O)CCc1ccc(O)c(OC)c1 (stereo not drawn) [1-(4-hydroxy-3-methoxyphenyl)dodecan-3-ol]
- inhibition at 10 µM (5-lipoxygenase): ~90%
- platelet function via adenosine diphosphate or thromboxane A2 mechanisms [2]: did not affect
- antiplatelet aggregation activity compared with the indomethacin reference compound ([2]; arachidonic acid as substrate): three time more potent
- Acute toxicity ([3]; mice, 3 days, intraperitoneal administration): slight decrease in spontaneous activity, response to touch and limb tone
- Acute toxicity ([3]; mouse, in vivo, po): no toxicity
- toxicity towards brine shrimp [4]: low toxicity
- inhibition at 30 µM (NK-1 receptor): ~80%
- Emax (right atrium guinea pig; Cavia porcellus, right atrium guinea pig, 10^-7 - 3x10^-5 M, not blocked by praz., prop., read-out: tachycardia, % of isoprenaline Emax): 50 to 60%
- right atrium guinea pig (right atrium guinea pig): tachycardia 10^-7 - 3x10^-5 M
- tachycardia, % of isoprenaline Emax (right atrium guinea pig; right atrium guinea pig, 10^-7 - 3x10^-5 M, not blocked by praz., prop.): 60%
- inotropic, % isopren. max. (left atrium guinea pig; left atrium guinea pig, 10^-6 - 3x10^-5 M (not in rat)): 20%
- left atrium guinea pig (left atrium guinea pig): inotropic 10^-6 - 3x10^-5 M
- diaphragm rat ↓ (diaphragm rat; 10^-5 M (vehicle?)): ↓10% 10^-5 M (vehicle?)
- right atrium-vagus guinea pig [1]: no enhancement of vagal slowing 10^-7 - 10^-5 M
- block of ATP or α1-receptors in vas deferens (vas deferens rat): Neither blocked
- vas deferens rat ↓ (vas deferens rat; 10^-5 M (vehicle?)): ↓30% 10^-5 M (vehicle?)
- effect on bleeding time (Bleeding time in mice): little or no effect

SMILES: CCCCCCCC(O)CC(=O)CCc1ccc(O)c(OC)c1 (stereo not drawn) [[8]-gingerol, 5-hydroxy-1-(4-hydroxy-3-methoxyphenyl)dodecan-3-one, reference compound]
- duration of increased cardiac contractility [5]: 10 min
- increased cardiac contractility [5]: about 30%
- Action Potential Amplitude (cardiac Purkinje fibres; 5 µM): 124±2 mV
- Action Potential Duration 50% repolarisation (cardiac Purkinje fibres; 5 µM): 242 ± 20 ms
- Action Potential Duration 90% repolarisation (cardiac Purkinje fibres; 5 µM): 363 ± 27 ms
- Maximum rate of depolarisation (cardiac Purkinje fibres; 5 µM): 532±42 V/s
- Action Potential Amplitude (cardiac Purkinje fibres; 10 µM): 120±4 mV
- Action Potential Duration 50% repolarisation (cardiac Purkinje fibres; 10 µM): 207 ± 20 ms
- Action Potential Duration 90% repolarisation (cardiac Purkinje fibres; 10 µM): 339 ± 26 ms
- Maximum rate of depolarisation (cardiac Purkinje fibres; 10 µM): 483±41 V/s
- Action Potential Amplitude (cardiac Purkinje fibres; 20 µM): 119±2 mV
- Action Potential Duration 50% repolarisation (cardiac Purkinje fibres; 20 µM): 142 ± 20 ms
- Action Potential Duration 90% repolarisation (cardiac Purkinje fibres; 20 µM): 285 ± 26 ms
- Maximum rate of depolarisation (cardiac Purkinje fibres; 20 µM): 499±41 V/s
- Action Potential Amplitude (cardiac Purkinje fibres; 30 µM): 114±3 mV
- Action Potential Duration 50% repolarisation (cardiac Purkinje fibres; 30 µM): 107 ± 17 ms
- Action Potential Duration 90% repolarisation (cardiac Purkinje fibres; 30 µM): 248 ± 25 ms
- Maximum rate of depolarisation (cardiac Purkinje fibres; 30 µM): 443±45 V/s
- Action Potential Amplitude (cardiac Purkinje fibres; 40 µM): 116±4 mV
- Action Potential Duration 50% repolarisation (cardiac Purkinje fibres; 40 µM): 88 ± 15 ms
- Action Potential Duration 90% repolarisation (cardiac Purkinje fibres; 40 µM): 229 ± 22 ms
- Maximum rate of depolarisation (cardiac Purkinje fibres; 40 µM): 516±67 V/s
- Action Potential Amplitude (cardiac Purkinje fibres; 50 µM): 109±8 mV
- Action Potential Duration 50% repolarisation (cardiac Purkinje fibres; 50 µM): 76 ± 12 ms
- Action Potential Duration 90% repolarisation (cardiac Purkinje fibres; 50 µM): 221 ± 19 ms
- Maximum rate of depolarisation (cardiac Purkinje fibres; 50 µM): 471±73 V/s
- reduction of action potential duration at 50% repolarisation (cardiac Purkinje fibres; 50 µM): ~80%
- reduction of action potential duration at 90% repolarisation (cardiac Purkinje fibres; 50 µM): ~50%
- effect on rate of depolarization, amplitude of action potential and duration of action potential at 50% and 90% repolarization (cardiac Purkinje fibres): insignificant effect
